Like-named read-outs stand apart in the source and are kept apart here.
How the values were obtained:
Format in all cases: cell-based
[1] = test system: Hs 578T breast cancer cell line (HRAS G12D mutation); assay: Proliferation inhibition measured by CTG (CellTiter Glo), Hs 578T; settings: Homo sapiens, Table 1, CTG, 120 hours incubation, class symbol
Source text: (§1) NCI-H358 is a human non-small cell lung cancer cell line with KRAS G12C mutation; PANC-1 and AsPC-1 are pancreatic cancer cell lines with KRAS G12D mutation; AGS is a gastric cancer cell line with KRAS G12D mutation; A427 is a lung cancer cell line with KRAS G12D mutation; THP-1 is a leukemia cell line with NRAS G12D mutation; Hs 578T is a breast cancer cell line with HRAS G12D mutation; SW480 is a colon cancer cell lines with KRAS G12V mutation; A375 is a wild type malignant melanoma cell line. The proliferation inhibitory effect of the compounds on various mutations was evaluated by determining the proliferation inhibitory activity of the compounds on these cell lines.
(§2) The assay was conducted on either 384-well plates or 96-well plates. The procedures are as follows:
(§3) The cell suspensions were added to 384- or 96-well plates (384-well plate: 40 μL; 96-well plate: […]) except for peripheral wells. The plates were incubated in a carbon dioxide incubator overnight. Prepared compounds (10 concentration gradients by serial 3-fold dilution) were added to the wells. The cell plates were incubated in a carbon dioxide incubator for 120 hours. CellTiter Glo reagent (384 well plate: 25 μL; 96 well plate: 100 μL) was added to the 384- or 96-well plates. The plates were shaken for 10 minutes away from light, and incubated for 10 minutes. The plates were read by EnVision system. Inhibition curves were plotted using XLFit and IC50 values were calculated. “IC50>10 μM” is denoted by “*”, “10 μM≥IC50>1 μM” is denoted by “**”, “1 μM≥IC50>100 nM” is denoted by “***”, and “IC50≤100 nM” is denoted by “****”.

[2] = test system: A375 wild type malignant melanoma cell line; assay: Proliferation inhibition measured by CTG (CellTiter Glo), A375; settings: Homo sapiens, A-375, CTG, 120 hours incubation
Source text: as §1, §2, §3

[3] = test system: NCI-H358 cells (KRAS G12C mutation); assay: Proliferation inhibition measured by CTG (CellTiter Glo), NCI-H358; settings: Homo sapiens, 120 hours incubation
Source text: as §1, §2, §3

[4] = test system: THP-1 leukemia cell line (NRAS G12D mutation); assay: Proliferation inhibition measured by CTG (CellTiter Glo), THP-1; settings: Homo sapiens, Table 1, CTG, 120 hours incubation, class symbol
Source text: as §1, §2, §3

[5] = test system: AGS gastric cancer cell line (KRAS G12D mutation); assay: Proliferation inhibition measured by CTG (CellTiter Glo), AGS; settings: CTG, 120 hours incubation
Source text: as §1, §2, §3

[6] = test system: AsPC-1 pancreatic cancer cell line (KRAS G12D mutation); assay: Proliferation inhibition measured by CTG (CellTiter Glo), AsPC-1; settings: Homo sapiens, ASPC1; Table 1; CTG, 120 hours incubation; class symbol
Source text: as §1, §2, §3

[7] = test system: A427 lung cancer cell line (KRAS G12D mutation); assay: Proliferation inhibition measured by CTG (CellTiter Glo), A427; settings: Homo sapiens, A-427; Table 1; CTG, 120 hours incubation; class symbol
Source text: as §1, §2, §3

[8] = Table 1, class symbol, read-out: IC50 (A375)
[9] = Table 1, CTG, class symbol, read-out: IC50 (H358)
[10] = Table 1, class symbol, read-out: IC50 (AGS)

| SMILES | IC50 [1] | IC50 [2, 8] | IC50 [3, 9] | IC50 [4] | IC50 [5, 10] | IC50 [6] | IC50 [7] | IC50 ([2]; Table 2, read-out: IC50 A375 (wide type)) | IC50 ([3]; Table 2, CTG, read-out: IC50 H358 (G12C)) | IC50 ([5]; Table 2, read-out: IC50 AGS (G12D)) |
| --- | --- | --- | --- | --- | --- | --- | --- | --- | --- | --- |
| CC(CN(C)C)Oc1nc2c(c(N3CCn4cncc4C3)n1)CCN(c1cccc3cccc(Cl)c13)C2 (centres unmarked) [Compound 29] | 0.1 to 1 µM | 0.1 to 1 µM | ≤ 0.1 µM | 0.1 to 1 µM | ≤ 0.1 µM | ≤ 0.1 µM |  |  |  |  |
| CN1CCC[C@H]1COc1nc2c(c(N3CCc4oncc4C3)n1)CCN(c1cccc3cccc(Cl)c13)C2 [Compound 34] | 1 to 10 µM | 1 to 10 µM | 0.1 to 1 µM | 0.1 to 1 µM | 0.1 to 1 µM | 0.1 to 1 µM |  |  |  |  |
| CN1CCC[C@H]1COc1nc2c(c(N3CCn4nncc4C3)n1)CCN(c1cccc3cccc(Cl)c13)C2 [Compound 10] |  | 0.1 to 1 µM | 0.1 to 1 µM |  |  | 0.1 to 1 µM | 0.1 to 1 µM |  |  |  |
| Clc1cccc2cccc(N3CCc4c(nc(OCCN5CCCCC5)nc4N4CCn5cncc5C4)C3)c12 [Compound 31] | 1 to 10 µM | 1 to 10 µM | 0.1 to 1 µM | 0.1 to 1 µM | 0.1 to 1 µM | 0.1 to 1 µM |  |  |  |  |
| CN1CCC[C@@H]1COc1nc2c(c(N3CCn4cncc4C3)n1)CO[C@H](c1cccc3cccc(Cl)c13)C2 [Compound 4] |  | 0.1 to 1 µM | 1 to 10 µM |  |  | 1 to 10 µM | 0.1 to 1 µM |  |  |  |
| CN1CCC2(CC1)CC(Oc1nc3c(c(N4CCn5cncc5C4)n1)CCN(c1cccc4cccc(Cl)c14)C3)C2 [Compound 35] | 1 to 10 µM | 1 to 10 µM | 0.1 to 1 µM | 1 to 10 µM | 1 to 10 µM | 1 to 10 µM |  |  |  |  |
| CC1Cn2cncc2CN1c1nc(OC[C@@H]2CCCN2C)nc2c1CCN(c1cccc3cccc(Cl)c13)C2 (some centres unmarked) [Compound 22] | 0.1 to 1 µM | ≤ 0.1 µM | ≤ 0.1 µM | ≤ 0.1 µM | ≤ 0.1 µM | ≤ 0.1 µM |  | 0.096 µM | 0.073 µM | 0.054 µM |
| CN1CCC[C@H]1COc1nc2c(c(N3CCn4cnc(C#N)c4C3)n1)CCN(c1cccc3cccc(Cl)c13)C2 [Compound 9] |  | 0.1 to 1 µM | ≤ 0.1 µM |  | ≤ 0.1 µM | ≤ 0.1 µM | ≤ 0.1 µM |  |  |  |
| CN1CCC[C@H]1COc1nc2c(c(N3CCn4c(cnc4C#N)C3)n1)CCN(c1cccc3cccc(Cl)c13)C2 [Compound 8] |  | 0.1 to 1 µM | 1 to 10 µM |  |  | 1 to 10 µM | 0.1 to 1 µM |  |  |  |
| CN1CCC(Oc2nc3c(c(N4CCn5cncc5C4)n2)CCN(c2cccc4cccc(Cl)c24)C3)CC1 [Compound 20] | 1 to 10 µM | 1 to 10 µM | 0.1 to 1 µM | 0.1 to 1 µM | 0.1 to 1 µM | 1 to 10 µM |  |  |  |  |
| CN1CCC[C@H]1COc1nc2c(c(N3CCn4cnc(-c5ccccc5)c4C3)n1)CCN(c1cccc3cccc(Cl)c13)C2 [Compound 30] | 1 to 10 µM | 0.1 to 1 µM | 0.1 to 1 µM | 0.1 to 1 µM | 0.1 to 1 µM | 0.1 to 1 µM |  |  |  |  |
| COC1CN(c2nc(OC[C@@H]3CCCN3C)nc3c2CCN(c2cccc4cccc(Cl)c24)C3)Cc2cncn21 (some centres unmarked) [Compound 23] | 1 to 10 µM | 0.1 to 1 µM | 0.1 to 1 µM | 0.1 to 1 µM | 0.1 to 1 µM | 0.1 to 1 µM |  |  |  |  |
| CC1CN(c2nc(OC[C@@H]3CCCN3C)nc3c2CCN(c2cccc4cccc(Cl)c24)C3)Cc2cncn21 (some centres unmarked) [Compound 11] |  | 0.1 to 1 µM | 0.1 to 1 µM |  |  | 0.1 to 1 µM | 0.1 to 1 µM |  |  |  |
| CN1CCO[C@H](COc2nc3c(c(N4CCn5cncc5C4)n2)CCN(c2cccc4cccc(Cl)c24)C3)C1 [Compound 27] | 1 to 10 µM | 1 to 10 µM | 0.1 to 1 µM | 0.1 to 1 µM | 0.1 to 1 µM | 0.1 to 1 µM |  |  |  |  |
| CN1CCC[C@H]1COc1nc2c(c(N3CCn4c(cnc4CO)C3)n1)CCN(c1cccc3cccc(Cl)c13)C2 [Compound 6] |  | 0.1 to 1 µM | 0.1 to 1 µM |  |  | 0.1 to 1 µM | 0.1 to 1 µM |  |  |  |
| CN(C)CCOc1nc2c(c(N3CCn4cncc4C3)n1)CCN(c1cccc3cccc(Cl)c13)C2 [Compound 16] |  | 0.1 to 1 µM | 0.1 to 1 µM |  |  | ≤ 0.1 µM | ≤ 0.1 µM |  |  |  |
| CN1CCO[C@@H](COc2nc3c(c(N4CCn5cncc5C4)n2)CCN(c2cccc4cccc(Cl)c24)C3)C1 [Compound 32] | 1 to 10 µM | 1 to 10 µM | 0.1 to 1 µM | 1 to 10 µM | 1 to 10 µM | 1 to 10 µM |  |  |  |  |
| CN(C)CCCOc1nc2c(c(N3CCn4cncc4C3)n1)CCN(c1cccc3cccc(Cl)c13)C2 [Compound 21] | 0.1 to 1 µM | 0.1 to 1 µM | ≤ 0.1 µM | 0.1 to 1 µM | ≤ 0.1 µM | 0.1 to 1 µM |  |  |  |  |
| CN1CC[C@@H](COc2nc3c(c(N4CCn5cncc5C4)n2)CCN(c2cccc4cccc(Cl)c24)C3)C1 [Compound 28] | 1 to 10 µM | 0.1 to 1 µM | 0.1 to 1 µM | 0.1 to 1 µM | 0.1 to 1 µM | 0.1 to 1 µM |  |  |  |  |
| Cc1cccc2cccc(N3CCc4c(nc(OC[C@@H]5CCCN5C)nc4N4CCn5cncc5C4)C3)c12 [Compound 17] |  | 0.1 to 1 µM | 0.1 to 1 µM |  |  | 0.1 to 1 µM | 0.1 to 1 µM |  |  |  |
| CN1CCC[C@@H]1COc1nc2c(c(N3CCn4cncc4C3)n1)CCN(c1cccc3cccc(Cl)c13)C2 [Compound 18] | 0.1 to 1 µM | 0.1 to 1 µM | ≤ 0.1 µM | 0.1 to 1 µM | ≤ 0.1 µM | 0.1 to 1 µM |  |  |  |  |
| CN1CCC[C@H]1COc1nc2c(c(N3CCn4c(cnc4N)C3)n1)CCN(c1cccc3cccc(Cl)c13)C2 [Compound 7] |  | 0.1 to 1 µM | 0.1 to 1 µM |  |  | 1 to 10 µM | 0.1 to 1 µM |  |  |  |
| CN1CCC[C@H]1COc1nc(N2CCn3cncc3C2)c2ccc(-c3cccc4cccc(Cl)c34)cc2n1 [Compound 1] |  | 0.1 to 1 µM | 0.1 to 1 µM |  |  | 0.1 to 1 µM | 0.1 to 1 µM |  |  |  |
| CN1CCC[C@H]1COc1nc2c(c(N3CCn4cnc(Br)c4C3)n1)CCN(c1cccc3cccc(Cl)c13)C2 [Compound 33] | 0.1 to 1 µM | 0.1 to 1 µM | ≤ 0.1 µM | ≤ 0.1 µM | ≤ 0.1 µM | 0.1 to 1 µM |  |  |  |  |

From US20230391785A1, “NITROGEN-CONTAINING HETEROCYCLIC COMPOUND, METHOD FOR PREPARING SAME AND USE OF SAME” (280 Bio, Inc., priority 2021, published 2023)
